Reference: patent publication US11071727B2, “Therapeutic targeting of proteolytic cleavage of the mixed lineage leukemia gene product (MLL1) by taspase1 using kinase inhibitors” (Northwestern University, priority 2018, dated 2021)

Assays:
MOLM13 cells = experiment: MOLM13 human leukemia xenograft mouse model; type: in vivo
Experimental: FIG. 7. CKII inhibition delays the leukemia progression and improves survival of MLL-AF9 mice and MOLM13 human leukemia mice. (A) Timeline of the MLL-AF9 leukemia mouse model and CKII inhibitor treatment. Drug treatments were started at day 10 after transplantation. (B) Kaplan-Meier survival curves of secondary transplanted C57BL/6 mice after vehicle and CX-4945 treatment at day 10. Vehicle or CX-4945 (50 mg/kg or 75 mg/kg) were administered twice daily by oral gavage for a total of twenty treatments. Leukemia was confirmed at the endpoint for each transplant mouse. The number (n) indicates the number of mice in each group. The p values were calculated using the log rank test. (C) Timeline of the MOLM13 human leukemia xenograft mice. Drug treatments were started at day 5 after transplantation. (D) Kaplan-Meier survival curves of NSGS mice after vehicle and CX-4945 treatment. Vehicle or CX-4945 (50 mg/kg) were administered twice daily by oral gavage for a total of twenty treatments. Leukemia was confirmed at the endpoint for each transplant mouse by flow cytometry, H&E staining and histology analysis. […] The p value was calculated using the log rank test. […]
MLL Murine Xenograft Transplantation and Treatment. […] Mice were monitored for illness including signs of lethargy, ruffled coat, and/or hind limb paralysis at which time mice were sacrificed for analysis. […]

[1] = tested on: MLL leukemia and non-MLL leukemia cells; experiment: Leukemia cell proliferation by cell counting; type: cell-based, human; conditions: panel of MLL and non-MLL leukemia cell lines, increasing concentrations, 3 days
Experimental: FIG. 6. CKII inhibition increases genome-wide MLL occupancy and excludes SEC recruitment in MLL leukemia cells. (A) and (B) MLL1C occupancy in CX-4945 or TTP22 treated cells were shown relative to DMSO control. […] (C) Track examples of the MLL1 occupancy at the promoter regions of ELF2 and C6orf211. (D) CX-4945 inhibition of leukemia cell proliferation. Multiple MLL leukemia (orange lines) and non-MLL leukemia (blue lines) were cultured with different doses of CX-4945 for 3 days. Cell number was determined by cell counter and normalized to DMSO control. (E) SEM cells were treated with 0, 5 or 10 μM of CX-4945 for 30 hours and western blot was performed to determine the MLL1 full-length protein levels and MLL-AF4 fusion protein levels. (F) MLL-AFF1, AFF4 and ELL2 occupancies were decreased by CX-4945 treatment in SEM cells.
Cell culture. All of the cell lines were purchased from the American Type Culture Collection (Rockville, Md.). 293T, MCF7 and HCT116 cell lines were maintained in Dulbecco's modified Eagle's medium (DMEM) (Gibco, Gaithersburg, Md.) supplemented with 10% fetal bovine serum (FBS) (Gibco) at 37° with 5% CO2. SEM was maintained in IMDM with 10% FBS. […]
Cell Proliferation Assay. Cell proliferation was measured by cell counting using the Vi-CELL™ Cell Counter (Beckman Coulter Life Sciences, Indianapolis, Ind.). […]

For O=C(O)c1ccc2c(c1)nc(Nc1cccc(Cl)c1)c1ccncc12 [CX-4945, 5-(3-chlorophenylamino)benzo[c][2,6]naphthyridine-8-carboxylic acid], the “weight of the mice” value (MOLM13 cells; MOLM13 human leukemia xenograft mouse model, compared with vehicle control group) was “did not affect the weight of the mice”, the leukemia free survival (MOLM13 cells; NSGS mice, 50 mg/kg twice daily by oral gavage for ten days, from day 5) was “significantly lengthened” and the “sensitivity of leukemic cell lines (cell number normalized to DMSO)” value [1] was “MLL leukemia cells were generally more sensitive than non-MLL leukemic cells”.
